Key:
Experiment in all cases: Test D pre-/postemergence plant response
Assay type in all cases: in vivo
[1] = tested on: galium (catchweed bedstraw, Galium aparine); conditions: Postemergence; for Plant response rating, Galium: scale 0 to 100, 0 no effect, 100 complete control
Method in brief: (§1)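 Preemergence: seeds in loam/sand blend treated with test chemicals in non-phytotoxic solvent with surfactant; postemergence: plants at 2–18 cm (1- to 4-leaf stage) in peat-based medium sprayed likewise. Greenhouse 13 to 15 days, then visual rating vs controls, 0 (no effect) to 100 (complete control).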

[2] = tested on: Italian ryegrass (Lolium multiflorum); conditions: Postemergence
Method in brief: as §1

[3] = tested on: waterhemp (common waterhemp, Amaranthus rudis); conditions: Postemergence
Method in brief: as §1

[4] = tested on: velvetleaf (Abutilon theophrasti); conditions: Postemergence
Method in brief: as §1

[5] = tested on: barnyardgrass (Echinochloa crus-galli); conditions: Postemergence; for Plant response rating, Barnyardgrass: scale 0 to 100, 0 no effect, 100 complete control
Method in brief: as §1

[6] = tested on: pigweed (Amaranthus retroflexus); conditions: Postemergence
Method in brief: as §1

[7] = tested on: lambsquarters (Chenopodium album); conditions: Postemergence
Method in brief: as §1

[8] = tested on: giant foxtail (Setaria faberii); conditions: Postemergence; for Plant response rating, Foxtail, Giant: scale 0 to 100, 0 no effect, 100 complete control
Method in brief: as §1

[9] = tested on: large (Lg) crabgrass (Digitaria sanguinalis); conditions: Postemergence; for Plant response rating, Crabgrass, Large: scale 0 to 100, 0 no effect, 100 complete control
Method in brief: as §1

[10] = tested on: morningglory (Ipomoea coccinea); conditions: Postemergence
Method in brief: as §1

[11] = tested on: winter wheat (Triticum aestivum); conditions: Postemergence
Method in brief: as §1

[12] = tested on: blackgrass (Alopecurus myosuroides); conditions: Postemergence; for Plant response rating, Blackgrass: scale 0 to 100, 0 no effect, 100 complete control
Method in brief: as §1

[13] = tested on: yellow nutsedge (Cyperus esculentus); conditions: Postemergence
Method in brief: as §1

[14] = tested on: ragweed (common ragweed, Ambrosia elatior); conditions: Postemergence
Method in brief: as §1

corn (Zea mays) = conditions: Postemergence; for Plant response rating, Corn: scale 0 to 100, 0 no effect, 100 complete control
Method in brief: as §1

[15] = tested on: oilseed rape (Brassica napus); conditions: Postemergence
Method in brief: as §1

[16] = tested on: johnsongrass (Sorghum halepense); conditions: Postemergence; for Plant response rating, Johnsongrass: scale 0 to 100, 0 no effect, 100 complete control
Method in brief: as §1

soybean (Glycine max) = conditions: Postemergence
Method in brief: as §1

[17] = 31 g ai/ha, scale 0 to 100 (0 no effect, 100 complete control)
[18] = 62 g ai/ha, scale 0 to 100, 0 no effect, 100 complete control
[19] = 125 g ai/ha, scale 0 to 100, 0 no effect, 100 complete control

FC(F)c1cc(-c2ccccc2Oc2ncc(Br)cn2)on1 [Compound 212]
20: Plant response rating (scale 0 to 100), Velvetleaf ([4]; 16 g ai/ha) | Oilseed Rape plant response rating [15, 18] | Plant response rating, Johnsongrass ([16]; 62 g ai/ha) | Plant response rating, Johnsongrass ([16]; 125 g ai/ha)
60: Plant response rating (scale 0 to 100), Galium ([1]; 16 g ai/ha) | Galium plant response rating [1, 17] | Velvetleaf plant response rating [4, 18] | Plant response rating, Ragweed [14, 19] | Plant response rating (scale 0 to 100), Soybean (soybean (Glycine max); 16 g ai/ha)
35: Plant response rating (scale 0 to 100), Ragweed ([14]; 16 g ai/ha) | Plant response rating, Oilseed Rape [15, 19]
55: Ragweed plant response rating [14, 18]
15: Plant response rating, Barnyardgrass ([5]; 62 g ai/ha) | Plant response rating, Foxtail, Giant ([8]; 62 g ai/ha) | Plant response rating, Crabgrass, Large ([9]; 125 g ai/ha) | Plant response rating, Wheat [11, 19] | Plant response rating, Corn (corn (Zea mays); 125 g ai/ha)
5: Plant response rating, Ryegrass, Italian [2, 19] | Plant response rating (scale 0 to 100), Barnyardgrass ([5]; 16 g ai/ha) | Barnyardgrass plant response rating [5, 17] | Plant response rating (scale 0 to 100), Crabgrass, Large ([9]; 16 g ai/ha) | Wheat plant response rating [11, 17] | Wheat plant response rating [11, 18] | Nutsedge, Yellow plant response rating [13, 17] | Plant response rating, Nutsedge, Yellow [13, 19] | Plant response rating (scale 0 to 100), Corn (corn (Zea mays); 16 g ai/ha) | Corn plant response rating (corn (Zea mays); [17]) | Plant response rating (scale 0 to 100), Johnsongrass ([16]; 16 g ai/ha) | Johnsongrass plant response rating [16, 17]
40: Plant response rating (scale 0 to 100), Lambsquarters ([7]; 16 g ai/ha) | Ragweed plant response rating [14, 17]
70: Soybean plant response rating (soybean (Glycine max); [17])
50: Velvetleaf plant response rating [4, 17]
65: Plant response rating, Galium ([1]; 62 g ai/ha)
90: Plant response rating, Velvetleaf [4, 19] | Plant response rating, Soybean (soybean (Glycine max); [19])
25: Plant response rating, Barnyardgrass ([5]; 125 g ai/ha)
85: Soybean plant response rating (soybean (Glycine max); [18])
80: Plant response rating, Galium ([1]; 125 g ai/ha) | Plant response rating (scale 0 to 100), Waterhemp ([3]; 16 g ai/ha) | Lambsquarters plant response rating [7, 17]
100: Waterhemp plant response rating [3, 18] | Plant response rating, Waterhemp [3, 19] | Plant response rating (scale 0 to 100), Pigweed ([6]; 16 g ai/ha) | Pigweed plant response rating [6, 17] | Pigweed plant response rating [6, 18] | Plant response rating, Pigweed [6, 19]
75: Plant response rating (scale 0 to 100), Morningglory ([10]; 16 g ai/ha) | Morningglory plant response rating [10, 18]
98: Waterhemp plant response rating [3, 17] | Lambsquarters plant response rating [7, 18] | Plant response rating, Lambsquarters [7, 19] | Morningglory plant response rating [10, 17] | Plant response rating, Morningglory [10, 19]
0: Plant response rating (scale 0 to 100), Ryegrass, Italian ([2]; 16 g ai/ha) | Ryegrass, Italian plant response rating [2, 17] | Ryegrass, Italian plant response rating [2, 18] | Plant response rating (scale 0 to 100), Wheat ([11]; 16 g ai/ha) | Plant response rating (scale 0 to 100), Blackgrass ([12]; 16 g ai/ha) | Blackgrass plant response rating [12, 17] | Plant response rating, Blackgrass ([12]; 62 g ai/ha)
10: Plant response rating (scale 0 to 100), Foxtail, Giant ([8]; 16 g ai/ha) | Foxtail, Giant plant response rating [8, 17] | Plant response rating, Foxtail, Giant ([8]; 125 g ai/ha) | Crabgrass, Large plant response rating [9, 17] | Plant response rating, Crabgrass, Large ([9]; 62 g ai/ha) | Plant response rating, Blackgrass ([12]; 125 g ai/ha) | Plant response rating (scale 0 to 100), Nutsedge, Yellow ([13]; 16 g ai/ha) | Nutsedge, Yellow plant response rating [13, 18] | Plant response rating, Corn (corn (Zea mays); 62 g ai/ha) | Plant response rating (scale 0 to 100), Oilseed Rape ([15]; 16 g ai/ha)

CC(F)(F)c1cc(-c2ccccc2Oc2ncc(Cl)cn2)no1 [Compound 220]
75: Plant response rating (scale 0 to 100), Pigweed ([6]; 4 g ai/ha) | Plant response rating (scale 0 to 100), Morningglory ([10]; 16 g ai/ha)
50: Plant response rating (scale 0 to 100), Galium ([1]; 2 g ai/ha) | Plant response rating (scale 0 to 100), Galium ([1]; 4 g ai/ha)
70: Plant response rating (scale 0 to 100), Waterhemp ([3]; 8 g ai/ha) | Plant response rating (scale 0 to 100), Pigweed ([6]; 2 g ai/ha) | Plant response rating (scale 0 to 100), Lambsquarters ([7]; 16 g ai/ha)
85: Plant response rating (scale 0 to 100), Pigweed ([6]; 16 g ai/ha)
5: Plant response rating (scale 0 to 100), Velvetleaf ([4]; 2 g ai/ha) | Plant response rating (scale 0 to 100), Barnyardgrass ([5]; 2 g ai/ha) | Plant response rating (scale 0 to 100), Barnyardgrass ([5]; 4 g ai/ha) | Plant response rating (scale 0 to 100), Lambsquarters ([7]; 8 g ai/ha) | Plant response rating (scale 0 to 100), Foxtail, Giant ([8]; 4 g ai/ha) | Plant response rating (scale 0 to 100), Foxtail, Giant ([8]; 8 g ai/ha) | Plant response rating (scale 0 to 100), Foxtail, Giant ([8]; 16 g ai/ha) | Plant response rating (scale 0 to 100), Crabgrass, Large ([9]; 2 g ai/ha) | Plant response rating (scale 0 to 100), Crabgrass, Large ([9]; 4 g ai/ha) | Plant response rating (scale 0 to 100), Crabgrass, Large ([9]; 8 g ai/ha) | Plant response rating (scale 0 to 100), Blackgrass ([12]; 16 g ai/ha) | Plant response rating (scale 0 to 100), Nutsedge, Yellow ([13]; 16 g ai/ha) | Plant response rating (scale 0 to 100), Ragweed ([14]; 2 g ai/ha) | Plant response rating (scale 0 to 100), Corn (corn (Zea mays); 4 g ai/ha) | Plant response rating (scale 0 to 100), Corn (corn (Zea mays); 8 g ai/ha) | Plant response rating (scale 0 to 100), Corn (corn (Zea mays); 16 g ai/ha) | Plant response rating (scale 0 to 100), Oilseed Rape ([15]; 4 g ai/ha) | Plant response rating (scale 0 to 100), Oilseed Rape ([15]; 8 g ai/ha) | Plant response rating (scale 0 to 100), Johnsongrass ([16]; 16 g ai/ha)
45: Plant response rating (scale 0 to 100), Lambsquarters ([7]; 4 g ai/ha)
55: Plant response rating (scale 0 to 100), Galium ([1]; 8 g ai/ha) | Plant response rating (scale 0 to 100), Lambsquarters ([7]; 2 g ai/ha)
35: Plant response rating (scale 0 to 100), Morningglory ([10]; 2 g ai/ha)
60: Plant response rating (scale 0 to 100), Galium ([1]; 16 g ai/ha) | Plant response rating (scale 0 to 100), Waterhemp ([3]; 4 g ai/ha)
15: Plant response rating (scale 0 to 100), Waterhemp ([3]; 2 g ai/ha) | Plant response rating (scale 0 to 100), Velvetleaf ([4]; 4 g ai/ha) | Plant response rating (scale 0 to 100), Crabgrass, Large ([9]; 16 g ai/ha) | Plant response rating (scale 0 to 100), Morningglory ([10]; 4 g ai/ha) | Plant response rating (scale 0 to 100), Ragweed ([14]; 4 g ai/ha) | Plant response rating (scale 0 to 100), Ragweed ([14]; 8 g ai/ha) | Plant response rating (scale 0 to 100), Soybean (soybean (Glycine max); 2 g ai/ha)
10: Plant response rating (scale 0 to 100), Velvetleaf ([4]; 8 g ai/ha) | Plant response rating (scale 0 to 100), Barnyardgrass ([5]; 8 g ai/ha) | Plant response rating (scale 0 to 100), Barnyardgrass ([5]; 16 g ai/ha) | Plant response rating (scale 0 to 100), Oilseed Rape ([15]; 16 g ai/ha) | Plant response rating (scale 0 to 100), Soybean (soybean (Glycine max); 4 g ai/ha) | Plant response rating (scale 0 to 100), Soybean (soybean (Glycine max); 8 g ai/ha) | Plant response rating (scale 0 to 100), Soybean (soybean (Glycine max); 16 g ai/ha)
0: Plant response rating (scale 0 to 100), Ryegrass, Italian ([2]; 2 g ai/ha) | Plant response rating (scale 0 to 100), Ryegrass, Italian ([2]; 4 g ai/ha) | Plant response rating (scale 0 to 100), Ryegrass, Italian ([2]; 8 g ai/ha) | Plant response rating (scale 0 to 100), Ryegrass, Italian ([2]; 16 g ai/ha) | Plant response rating (scale 0 to 100), Foxtail, Giant ([8]; 2 g ai/ha) | Plant response rating (scale 0 to 100), Wheat ([11]; 2 g ai/ha) | Plant response rating (scale 0 to 100), Wheat ([11]; 4 g ai/ha) | Plant response rating (scale 0 to 100), Wheat ([11]; 8 g ai/ha) | Plant response rating (scale 0 to 100), Wheat ([11]; 16 g ai/ha) | Plant response rating (scale 0 to 100), Blackgrass ([12]; 2 g ai/ha) | Plant response rating (scale 0 to 100), Blackgrass ([12]; 4 g ai/ha) | Plant response rating (scale 0 to 100), Blackgrass ([12]; 8 g ai/ha) | Plant response rating (scale 0 to 100), Nutsedge, Yellow ([13]; 2 g ai/ha) | Plant response rating (scale 0 to 100), Nutsedge, Yellow ([13]; 4 g ai/ha) | Plant response rating (scale 0 to 100), Nutsedge, Yellow ([13]; 8 g ai/ha) | Plant response rating (scale 0 to 100), Corn (corn (Zea mays); 2 g ai/ha) | Plant response rating (scale 0 to 100), Oilseed Rape ([15]; 2 g ai/ha) | Plant response rating (scale 0 to 100), Johnsongrass ([16]; 2 g ai/ha) | Plant response rating (scale 0 to 100), Johnsongrass ([16]; 4 g ai/ha) | Plant response rating (scale 0 to 100), Johnsongrass ([16]; 8 g ai/ha)
80: Plant response rating (scale 0 to 100), Waterhemp ([3]; 16 g ai/ha) | Plant response rating (scale 0 to 100), Pigweed ([6]; 8 g ai/ha)
25: Plant response rating (scale 0 to 100), Velvetleaf ([4]; 16 g ai/ha) | Plant response rating (scale 0 to 100), Morningglory ([10]; 8 g ai/ha) | Plant response rating (scale 0 to 100), Ragweed ([14]; 16 g ai/ha)

Source: US10131652B2, “Pyrimidinyloxy benzene derivatives as herbicides” (E. I. DU PONT DE NEMOURS AND COMPANY, priority 2014, dated 2018)
